Values of other authors, collected in patent US10995093B2, “Synthesis of 2′-fluoro-6′-methylene-carbocyclic adenosine (FMCA) and 2′-fluoro-6′methylene-carbocyclic guanosine (FMCG)” (UNIVERSITY OF GEORGIA RESEARCH FOUNDATION, INC., priority 2016, dated 2021).
“Also recorded” adds a separate entry of the source.

Legend:
[1] = no significant toxicity observed up to 100 μM
[2] = test system: lamivudine, adefovir, and double lamivudine/entecavir-resistant mutants; conditions: drug-resistant mutants
[3] = test system: lamivudine/entecavir-resistant clone (L180M+M204V+S202G)

For C=C1[C@@H](n2cnc3c(N)ncnc32)[C@@H](F)[C@H](O)[C@H]1CO [FMCA, (1R,3R,5R)-3-(6-amino-9H-purin-9-yl)-2-fluoro-5-(hydroxymethyl)-4-methylenecyclopentanol], the “mitochondrial and cellular toxicity, concentration up to which no significant toxicity was observed” value [1] is given as > 100 µM, the “activity against lamivudine, adefovir, and double lamivudine/entecavir-resistant mutants” value [2] is given as “significant activity” and the “activity against wild-type HBV” value (wild-type HBV) is given as “significant activity; also recorded: potential antiviral activity”. The “antiviral activity against lamivudine/entecavir-resistant clone” value [3] was “potential antiviral activity”.
